Measured values taken from patent US7815942B2, “Rasagiline formulations of improved content uniformity” (Teva Pharmaceutical Industries, Ltd., priority 2005, dated 2010).
Like-named read-outs stand apart in the source and are kept apart here.

Assays:
[1] = Particle size distribution by Malvern laser diffraction (Mastersizer S); assay type: physicochemical; conditions: average of two measurements
Experimental: Many analytical tools are available to determine PSD. In the early development stage, the analysis of PSD was performed through microscopic and sieve analysis. Laser diffraction was chosen as the final analytical method for measuring the PSD. Because the large particles were of major concern, the important characteristics of the PSD were the d(0.9), which is the size, in microns, below which 90% of the particles by volume are found, and the d(0.1), which is the size, in microns, below which 10% of the particles by volume are found.
R(+)PAI mesylate samples before milling contain large, irregular, plate-shaped particles of various sizes (See FIG. 1). PSDs of four different batches were measured before milling and after milling. The PSDs were measured using Malvern Laser Diffraction, using the Mastersizer S model. Laser diffraction relies on the fact that diffraction angle of light is inversely proportional to particle size. Properties of particles are measured and interpreted as measurements of a sphere (a sphere being the only shape that can be described by one unique number). In addition, laser diffraction calculates a particle size distribution based around volume terms, thus eliminating particle count from the determination of particle size. The Masterizer S model measures particles using a single technique and a single range setting.
The values in the table represent averages of two measurements. Each measurement was taken after 3 minutes of recirculation with the speed control at the 14 hour position. The dilution medium was a 1% solution of dioctyl sulfosuccinate sodium salt in n-hexane. The concentration of drug substance used in the measurements was between 0.05% and 0.35% by volume. The results were confirmed with microscopic observation. For optical microscopy, an emulsion or suspension, diluted or undiluted, was mounted on a slide or ruled cell. The microscope eyepiece was fitted with a micrometer by which the size of the particles may be estimated.
D(0.1) is the particle size, in microns, below which 10% by volume distribution of the population is found, and d(0.9) is the particle size, in microns, below which 90% by volume distribution of the population is found. […]

[2] = 18-year study, subjects, cited from earlier work
[3] = compared with the microcrystalline form; cited from earlier work

C#CCN[C@@H]1CCc2ccccc21.CS(=O)(=O)O [Batch D222/223]
d (0.1) after milling ([1]; listed as D222/223): 10 microns | d (0.9) after milling ([1]; listed as D222/223): 156 microns | d (0.1) before milling ([1]; listed as D222/223): 18 microns | d (0.9) before milling ([1]; listed as D222/223): 573 microns

C#CCN[C@@H]1CCc2ccccc21.CS(=O)(=O)O [Batch D197/197]
d (0.1) after milling ([1]; listed as D197/197): 14 microns | d (0.9) after milling ([1]; listed as D197/197): 168 microns | d (0.1) before milling ([1]; listed as D197/197): 21 microns | d (0.9) before milling ([1]; listed as D197/197): 443 microns

C#CCN[C@@H]1CCc2ccccc21.CS(=O)(=O)O [Batch D297/297]
d (0.1) after milling ([1]; listed as D297/297): 11 microns | d (0.9) after milling ([1]; listed as D297/297): 160 microns | d (0.1) before milling ([1]; listed as D297/297): 20 microns | d (0.9) before milling ([1]; listed as D297/297): 386 microns

O=C1CN(/N=C/c2ccc([N+](=O)[O-])o2)C(=O)N1 [microcrystalline form, Nitrofurantoin]
negative side effects (adverse events) such as nausea and gastro-intestinal problems [2]: produces negative side effects

C#CCN[C@@H]1CCc2ccccc21.CS(=O)(=O)O [Batch D211/212]
d (0.1) after milling ([1]; listed as D211/212): 16 microns | d (0.9) after milling ([1]; listed as D211/212): 189 microns | d (0.1) before milling ([1]; listed as D211/212): 104 microns | d (0.9) before milling ([1]; listed as D211/212): 598 microns

O=C1CN(/N=C/c2ccc([N+](=O)[O-])o2)C(=O)N1 [macrocrystalline form of Nitrofurantoin, Nitrofurantoin]
dissolution and absorption rates [3]: slower | serum concentrations [3]: lower | time to achieve peak concentration in urine [3]: takes longer | negative side effects (adverse events) such as nausea and gastro-intestinal problems ([2]; listed as macrocrystalline form): did not manifest
